Measurements taken from the NIST ThermoML archive (doi:10.1016/j.tca.2018.04.018).

Tests used:
[1] = molar heat capacity at constant pressure; details: 3000 kPa, Flow calorimetry
[2] = molar heat capacity at constant pressure; xn = mol fraction of the nth substance listed; details: Flow calorimetry

O [water]
[1]
Details	molar heat capacity at constant pressure [J/K/mol]
330.2 K, Liquid	75.29
340.1 K, Liquid	75.41
358.4 K, Liquid	75.61
368.2 K, Liquid	75.61
378.6 K, Liquid	75.99
388.4 K, Liquid	76.49
398.5 K, Liquid	76.51
408.6 K, Liquid	77.48
418.8 K, Liquid	76.93
428.6 K, Liquid	77.72
438.5 K, Liquid	78.11
448.2 K, Liquid	78.91
458.5 K, Liquid	79.41
468.2 K, Liquid	80.92
478.2 K, Liquid	81.81
488.7 K, Liquid	83.32
498.1 K, Liquid	83.92
508.4 K, Gas	63.31

CCCCC [pentane] + CC(C)=O
[2]
Details	molar heat capacity at constant pressure [J/K/mol]
423.14 K, 3900 kPa, Liquid, x1 = 0.25	170.75
423.14 K, 7920 kPa, Liquid, x1 = 0.5	179.32
423.15 K, 2000 kPa, Liquid, x1 = 0.25	174.5
423.15 K, 2900 kPa, Liquid, x1 = 0.5	194.43
423.15 K, 4000 kPa, Liquid, x1 = 0.5	190.78
423.15 K, 6000 kPa, Liquid, x1 = 0.25	171.36
423.15 K, 6050 kPa, Liquid, x1 = 0.5	184.14
423.15 K, 7960 kPa, Liquid, x1 = 0.25	163.97
423.16 K, 1080 kPa, Gas, x1 = 0.5	145.86
423.16 K, 2300 kPa, Liquid, x1 = 0.25	175.12
423.17 K, 1080 kPa, Gas, x1 = 0.25	135.14
483.14 K, 2960 kPa, Gas, x1 = 0.5	180.5
483.14 K, 4000 kPa, Gas, x1 = 0.5	283.18
483.15 K, 4480 kPa, Fluid (supercritical or subcritical phases), x1 = 0.5	750.83
483.15 K, 7050 kPa, Fluid (supercritical or subcritical phases), x1 = 0.5	233.69
483.15 K, 8160 kPa, Fluid (supercritical or subcritical phases), x1 = 0.5	218.13
483.16 K, 5000 kPa, Fluid (supercritical or subcritical phases), x1 = 0.5	446.03
483.16 K, 6100 kPa, Fluid (supercritical or subcritical phases), x1 = 0.5	260.13
493.15 K, 3860 kPa, Gas, x1 = 0.25	221.56
493.15 K, 4530 kPa, Fluid (supercritical or subcritical phases), x1 = 0.25	611.96
493.15 K, 4742 kPa, Fluid (supercritical or subcritical phases), x1 = 0.25	1236.9
493.15 K, 7920 kPa, Fluid (supercritical or subcritical phases), x1 = 0.25	214.05
493.16 K, 3140 kPa, Gas, x1 = 0.25	173.64
493.16 K, 6000 kPa, Fluid (supercritical or subcritical phases), x1 = 0.25	263.45
503.14 K, 3200 kPa, Gas, x1 = 0.25	167.97
503.14 K, 4120 kPa, Gas, x1 = 0.25	214.42
503.15 K, 6180 kPa, Fluid (supercritical or subcritical phases), x1 = 0.25	330.59
503.15 K, 7820 kPa, Fluid (supercritical or subcritical phases), x1 = 0.25	229.45
503.16 K, 5400 kPa, Fluid (supercritical or subcritical phases), x1 = 0.25	600.07
508.15 K, 2980 kPa, Gas, x1 = 0.5	175.81
508.15 K, 4060 kPa, Gas, x1 = 0.5	200.68
508.15 K, 6050 kPa, Fluid (supercritical or subcritical phases), x1 = 0.5	360.73
508.15 K, 6930 kPa, Fluid (supercritical or subcritical phases), x1 = 0.5	310.98
508.15 K, 8010 kPa, Fluid (supercritical or subcritical phases), x1 = 0.5	261.37
508.16 K, 5030 kPa, Fluid (supercritical or subcritical phases), x1 = 0.5	258.63
